Test results taken from US9708359B2, “Pyrrolopyrimidine nucleosides and analogs thereof” (Chimerix, Inc., priority 2015, dated 2017).
Read-outs that look alike come from different tables or passages of the source.

How the values were obtained:
MEV = assay: microbe, parasite or virus in culture; format: cell-based; settings: Measles morbillivirus, Vero 76, Vero76 cells
SARS = assay: organism not typed; format: cell-based, SARS CoV; settings: Vero 76
in vitro = settings: human
DENV-2 = assay: microbe, parasite or virus in culture; format: cell-based; settings: Dengue virus, DENV2, Vero 76; DENV-2, Vero76 cells
HHV-6B = assay: organism not typed; format: cell-based; settings: MOLT-3 cells
mouse norovirus = assay: Mouse Norovirus (MNV) assay in RAW cells
[1] = Cytotoxicity in lymphocyte assays, BCBL-1 cells; format: cell-based; settings: human, parallel to HHV-8 assay
Procedure: Every antiviral assay included a parallel cytotoxicity assay with the same cells used for each virus, the same cell number, the same drug concentrations, and the same incubation times to provide the same drug exposure. To ensure that the cytotoxicity of all compounds could be compared directly, a standard neutral red uptake cytotoxicity assay for all compounds in confluent HFF cells with a 7 d incubation period was performed.
Cytotoxicity in Lymphocyte Assays:
Cell viability in all assays with lymphocytes was assessed with a luminescent Cell Viability Assay. Briefly, assay plates were incubated at ambient temperature for 30 min then luminescent reagent was added to each well and the plates were mixed to lyse the cells. Plates were then incubated for at ambient temperature and the luminescence was quantified on a luminometer. Standard methods were used to calculate drug concentrations that inhibited the proliferation of cells by 50% (CC50).
Cell viability in all assays with lymphocytes was assessed with the CellTiter-Glo Luminescent Cell Viability Assay (Promega). […] Plates were then incubated for an additional 10 min at ambient temperature and the luminescence was quantified on a luminometer. […]

[2] = Cytotoxicity (CC50) in RAW cells; settings: mouse
HFF = HFF cells
EBV = assay: DNA quantitation assay for EBV; format: cell-based, Epstein-Barr virus; settings: human gammaherpesvirus 4, Akata cells
Procedure: DNA Quantitation Assays for EBV and HHV-6B:
Assays for EBV were performed in Akata cells that were induced to undergo a lytic infection with goat anti-human IgG antibody by standard methods. Experimental compounds were diluted in plates. Akata cells were added to the plates and incubated. For HHV-6, compounds were serially diluted then uninfected HSB-2 or Molt-3 cells were added to each well. Infection was initiated by adding HHV-6A infected HSB-2 cells, or HHV-6B infected Molt-3 cells, and incubated for 7 d at 37° C. For all assays, denaturation buffer was added to each well to denature the DNA and an aliquot was aspirated through a nylon membrane. The membranes were then allowed to dry before equilibration in DIG. Specific digoxigenin (DIG)-labeled probes were prepared for each virus according to the manufacturer's protocol. Detection of specifically bound DIG probe was performed with anti-DIG antibody using the manufacturer's protocol. An image of the photographic film was captured and quantified and compound concentrations sufficient to reduce the accumulation of viral DNA by 50% (EC50), were interpolated from the experimental data.
Assays for EBV were performed in Akata cells that were induced to undergo a lytic infection with 50 μg/mL of a goat anti-human IgG antibody by standard methods. […]

POV-3 = assay: microbe, parasite or virus in culture; format: cell-based, Poliovirus; settings: Enterovirus C, Vero 76
RAW cells = assay: Conversion of Compound 1 to Triphosphate in RAW Cells
YFV = assay: microbe, parasite or virus in culture; format: cell-based; settings: Yellow fever virus, Vero
[3] = RAW cells incubated with 0.5 μM Compound 1 for 48 hours
[4] = RAW cells incubated with 1 μM Compound 1 for 48 hours
[5] = RAW cells incubated with 5 μM Compound 1 for 48 hours
[6] = RAW cells incubated with 10 μM Compound 1 for 48 hours

Cc1nc(N)c2c(C(N)=O)cn([C@@H]3O[C@H](CO)[C@@H](O)[C@H]3O)c2n1 [Compound 1, 4-amino-7-((2R,3R,4S,5R)-3,4-dihydroxy-5-(hydroxymethyl)tetrahydrofuran-2-yl)-2-methyl-7H-pyrrolo[2,3-d]pyrimidine-5-carboxamide]
EC50 (MEV): > 100 µM | EC50 (SARS): 37 µM | CC50 (in vitro): > 60 µM | EC50 (DENV-2): > 100 µM | EC50 (HHV-6B): 39.7 µM | EC50 (mouse norovirus; Norovirus, in Mus musculus, read-out: EC50 value against mouse norovirus, in vitro, unit inferred): ~2.1 µM | EC50 (mouse norovirus; Norovirus, in Mus musculus, read-out: MNV Mean EC50, RAW cells): 2 µM | EC50 (mouse norovirus; murine norovirus, Table 7): 1.7 to 3.6 µM | CC50 [1]: 46.8 µM | CC50 [2]: 114 µM | CC50 (HFF; parallel to BKV assay): > 60 µM | CC50 (HFF; parallel to HSV-2 assay): > 60 µM | CC50 (HFF; parallel to VACV assay): > 60 µM | CC50 (HFF; parallel to VZV assay): > 60 µM | EC50 (EBV): 7.15 µM | EC50 (POV-3): > 100 µM | Concentration (ng/1 × 10^6 cells) (RAW cells; [3]): 0.17 ng/1 × 10^6 cells | Concentration (pmol/1 × 10^6 cells) (RAW cells; [3]): 0.53 pmol/1 × 10^6 cells | Concentration (ng/1 × 10^6 cells) (RAW cells; [4]): 0.13 ng/1 × 10^6 cells | Concentration (pmol/1 × 10^6 cells) (RAW cells; [4]): 0.40 pmol/1 × 10^6 cells | Concentration (ng/1 × 10^6 cells) (RAW cells; [5]): 0.65 ng/1 × 10^6 cells | Concentration (pmol/1 × 10^6 cells) (RAW cells; [5]): 2.01 pmol/1 × 10^6 cells | Concentration (ng/1 × 10^6 cells) (RAW cells; [6]): 1.02 ng/1 × 10^6 cells | Concentration (pmol/1 × 10^6 cells) (RAW cells; [6]): 3.15 pmol/1 × 10^6 cells | EC50 (YFV): > 100 µM
